Test results as given in ChEMBL document CHEMBL5236632, “Membrane-Active Nonivamide Derivatives as Effective Broad-Spectrum Antimicrobials: Rational Design, Synthesis, and Biological Evaluation” (J Med Chem, 2022).
Converted amounts (≈) assume the structure as drawn. The source made the active and inactive calls. The rule behind the calls is not given here.

How the values were obtained:
[1] = test system: Staphylococcus aureus; test: Antibacterial activity against Staphylococcus aureus ATCC 29213 assessed as inhibition of visible growth measured after 18 to 24 hrs by broth dilution method; assay type: functional; conditions: time 18-24 hrs
[2] = test system: Staphylococcus aureus; test: Antibacterial activity against methicillin-resistant Staphylococcus aureus NCTC 10442 assessed as inhibition of visible growth measured after 18 to 24 hrs by broth dilution method; assay type: functional; conditions: time 18-24 hrs
[3] = test system: Staphylococcus aureus; test: Antibacterial activity against methicillin-resistant Staphylococcus aureus N315 assessed as inhibition of visible growth measured after 18 to 24 hrs by broth dilution method; assay type: functional; conditions: time 18-24 hrs
[4] = test system: Escherichia coli; test: Antibacterial activity against Escherichia coli ATCC 25922 assessed as inhibition of visible growth measured after 18 to 24 hrs by broth dilution method; assay type: functional; conditions: time 18-24 hrs
[5] = Selectivity ratio, HC50 for hemolytic activity in rabbit RBC to MIC for antibacterial activity against methicillin-resistant Staphylococcus aureus NCTC 10442; assay type: toxicity; conditions: rabbit red blood cells
[6] = test system: Acinetobacter baumannii; test: Antibacterial activity against Acinetobacter baumannii ATCC 17978 assessed as inhibition of visible growth measured after 18 to 24 hrs by broth dilution method; assay type: functional; conditions: time 18-24 hrs
[7] = test system: Acinetobacter baumannii; test: Antibacterial activity against Acinetobacter baumannii R2889 assessed as inhibition of visible growth measured after 18 to 24 hrs by broth dilution method; assay type: functional; conditions: time 18-24 hrs
[8] = Selectivity ratio, HC50 for hemolytic activity in rabbit RBC to MIC for antibacterial activity against Pseudomonas aeruginosa ATCC 9027; assay type: toxicity; conditions: rabbit red blood cells
[9] = Selectivity ratio, HC50 for hemolytic activity in rabbit RBC to MIC for antibacterial activity against Acinetobacter baumannii R2889; assay type: toxicity; conditions: rabbit red blood cells
[10] = test system: Staphylococcus aureus; test: Antibacterial activity against Staphylococcus aureus ATCC 29213 assessed as inhibition of visible growth measured after 18 to 24 hrs in presence of 3220 ug/ml Na+ by broth dilution method; assay type: functional; conditions: time 18-24 hrs
[11] = test system: Staphylococcus aureus; test: Antibacterial activity against methicillin-resistant Staphylococcus aureus N315 assessed as inhibition of visible growth measured after 18 to 24 hrs in presence of 175.5 ug/ml K+ by broth dilution method; assay type: functional; conditions: time 18-24 hrs
[12] = test system: Staphylococcus aureus; test: Antibacterial activity against methicillin-resistant Staphylococcus aureus N315 assessed as inhibition of visible growth measured after 18 to 24 hrs in presence of 100 ug/ml Ca2+ by broth dilution method; assay type: functional; conditions: time 18-24 hrs
[13] = test system: Staphylococcus aureus; test: Antibacterial activity against methicillin-resistant Staphylococcus aureus NCTC 10442 assessed as inhibition of visible growth measured after 18 to 24 hrs in presence of 100 ug/ml Ca2+ by broth dilution method; assay type: functional; conditions: time 18-24 hrs
[14] = test system: Staphylococcus aureus; test: Antibacterial activity against methicillin-resistant Staphylococcus aureus NCTC 10442 assessed as inhibition of visible growth measured after 18 to 24 hrs in presence of 24.3 ug/ml Mg2+ by broth dilution method; assay type: functional; conditions: time 18-24 hrs
[15] = test system: Escherichia coli; test: Antibacterial activity against Escherichia coli […] assessed as inhibition of visible growth measured after 18 to 24 hrs in presence of 100 ug/ml Ca2+ by broth dilution method; assay type: functional; conditions: time 18-24 hrs
[16] = test system: Klebsiella pneumoniae; test: Antibacterial activity against Klebsiella pneumoniae ATCC 10031 assessed as inhibition of visible growth measured after 18 to 24 hrs in presence of 3220 ug/ml Na+ by broth dilution method; assay type: functional; conditions: time 18-24 hrs
[17] = test system: Klebsiella pneumoniae; test: Antibacterial activity against Klebsiella pneumoniae ATCC 10031 assessed as inhibition of visible growth measured after 18 to 24 hrs in presence of 24.3 ug/ml Mg2+ by broth dilution method; assay type: functional; conditions: time 18-24 hrs
[18] = test system: Cell membrane; test: Induction of membrane integrity disruption in Staphylococcus aureus ATCC 29213 assessed as increase fluoresence intensity at 4 to 8 times of MIC measured for 60 mins by SYTOX Green uptake assay; assay type: subcellular
[19] = test system: Cell membrane; test: Induction of membrane depolarization in Staphylococcus aureus ATCC 29213 assessed as increase in fluorescence intensity at 4 to 8 times MIC measured for 60 mins by DiSC3(5) dye based fluorescence method; assay type: subcellular
[20] = test system: Staphylococcus aureus; test: Displacement of BODIPY-TR-cadaverin from Staphylococcus aureus lipoteichoic acid at MIC concentration incubated for 30 mins by fluorescence based analysis
[21] = test system: Staphylococcus aureus; test: Inhibition of biofilm formation Staphylococcus aureus ATCC 29213 assessed as decrease in biofilm formation at 0.10 ug/ml measured after 24 hrs by crystal violet staining assay; assay type: functional
[22] = test system: Staphylococcus aureus; test: Inhibition of biofilm formation Staphylococcus aureus ATCC 29213 assessed as decrease in biofilm formation at 0.20 ug/ml measured after 24 hrs by crystal violet staining assay; assay type: functional
[23] = test system: Staphylococcus aureus; test: Inhibition of biofilm formation Staphylococcus aureus ATCC 29213 assessed as decrease in biofilm formation at 0.78 ug/ml measured after 24 hrs by crystal violet staining assay; assay type: functional
[24] = test system: Escherichia coli; test: Inhibition of biofilm formation Escherichia coli ATCC 25922 assessed as decrease in biofilm formation at 0.78 ug/ml measured after 24 hrs by crystal violet staining assay; assay type: functional
[25] = test system: Escherichia coli; test: Inhibition of biofilm formation Escherichia coli ATCC 25922 assessed as decrease in biofilm formation at 6.25 ug/ml measured after 24 hrs by crystal violet staining assay; assay type: functional
[26] = test system: Staphylococcus aureus; test: Eradication of biofilm in Staphylococcus aureus ATCC 29213 assessed as biofilm viability at 0.20 ug/ml measured after 24 hrs by crystal violet staining assay; assay type: functional; conditions: dose 0.2 µg/ml
[27] = test system: Staphylococcus aureus; test: Eradication of biofilm in Staphylococcus aureus ATCC 29213 assessed as biofilm viability at 0.39 ug/ml measured after 24 hrs by crystal violet staining assay; assay type: functional; conditions: dose 0.39 µg/ml
[28] = test system: Staphylococcus aureus; test: Eradication of biofilm in Staphylococcus aureus ATCC 29213 assessed as biofilm viability at 0.78 ug/ml measured after 24 hrs by crystal violet staining assay; assay type: functional; conditions: dose 0.78 µg/ml
[29] = test system: Staphylococcus aureus; test: Eradication of biofilm in Staphylococcus aureus ATCC 29213 assessed as biofilm viability at 3.13 ug/ml measured after 24 hrs by crystal violet staining assay; assay type: functional; conditions: dose 3.13 µg/ml
[30] = test system: Staphylococcus aureus; test: Eradication of biofilm in Staphylococcus aureus ATCC 29213 assessed as biofilm viability at 6.25 ug/ml measured after 24 hrs by crystal violet staining assay; assay type: functional; conditions: dose 6.25 µg/ml
[31] = test system: Escherichia coli; test: Eradication of biofilm in Escherichia coli ATCC 25922 assessed as biofilm viability at 0.78 ug/ml measured after 24 hrs by crystal violet staining assay; assay type: functional; conditions: dose 0.78 µg/ml
[32] = test system: Escherichia coli; test: Eradication of biofilm in Escherichia coli ATCC 25922 assessed as biofilm viability at 6.25 ug/ml measured after 24 hrs by crystal violet staining assay; assay type: functional; conditions: dose 6.25 µg/ml
[33] = test system: Escherichia coli; test: Eradication of biofilm in Escherichia coli ATCC 25922 assessed as biofilm viability at 12.5 ug/ml measured after 24 hrs by crystal violet staining assay; assay type: functional; conditions: dose 12.5 µg/ml
[34] = test system: Escherichia coli; test: Eradication of biofilm in Escherichia coli ATCC 25922 assessed as biofilm viability at 25 ug/ml measured after 24 hrs by crystal violet staining assay; assay type: functional; conditions: dose 25 µg/ml
[35] = test system: Escherichia coli; test: Drug resistance development in Escherichia coli ATCC 25922 assessed as fold change in MIC measured after 20 passages; assay type: functional
[36] = Cytotoxicity against HEK293 cells assessed as cell viability after 24 hrs incubation byCCK-8 assay; assay type: toxicity, cell-based; conditions: human
[37] = Toxicity in C57BL/6 mouse cornea assessed as corneal damage at 5 mg/ml treated topically; assay type: tissue-based; conditions: in vivo, topical_or_ocular, route top

Which MIC [1] does the source give for CCCCCCCCC(=O)NCc1ccc(OCCCCCCNC(=N)N)c(OCCCCCCNC(=N)N)c1 here?
Its MIC is 0.78 µg/mL (≈ 1.39 µM).

And the MIC [2]?
Its MIC is 0.39 µg/mL (≈ 0.694 µM).

What about the MIC [3] of the same compound?
Its MIC is 0.39 µg/mL (≈ 0.694 µM).

And the MIC [4]?
Its MIC is 1.56 µg/mL (≈ 2.78 µM).

And the selectivity ratio [5]?
Its selectivity ratio is 173.

What about the MIC [6] of the same compound?
The MIC was 3.12 µg/mL (≈ 5.56 µM).

And the MIC [7]?
The MIC was 6.25 µg/mL (≈ 11.1 µM).

And the selectivity ratio [8]?
Its selectivity ratio is 21.6.

What about the selectivity ratio [9] of the same compound?
Its selectivity ratio is 21.6.

And the MIC [10]?
Its MIC is 0.39 µg/mL.

What about the MIC [11] of the same compound?
The MIC was 0.39 µg/mL.

And the MIC [12]?
Its MIC is 0.39 µg/mL.

What about the MIC [13] of the same compound?
Its MIC is 0.39 µg/mL.

And the MIC [14]?
Its MIC is 0.39 µg/mL.

And the MIC [15]?
The MIC was 3.12 µg/mL.

And the MIC [16]?
Its MIC is 1.56 µg/mL.

And the MIC [17]?
The MIC was 1.56 µg/mL.

And the Activity [18]?
The Activity was “Active”.

What about the Activity [19] of the same compound?
Its Activity is “Active”.

What about the Activity [20] of the same compound?
Its Activity is 10.2%.

What about the inhibition at 0.1 µg/mL [21] of the same compound?
The inhibition at 0.1 µg/mL was 34.1%.

What about the inhibition at 0.2 µg/mL [22] of the same compound?
The inhibition at 0.2 µg/mL was 62.3%.

What about the inhibition at 0.78 µg/mL [23] of the same compound?
Its inhibition at 0.78 µg/mL is 99.7%.

And the inhibition at 0.78 µg/mL [24]?
Its inhibition at 0.78 µg/mL is 88.9%.

What about the inhibition at 6.25 µg/mL [25] of the same compound?
The inhibition at 6.25 µg/mL was 109%.

What about the Activity [26] of the same compound?
The Activity was 87.32%.

And the Activity [27]?
Its Activity is 73.22%.

And the Activity [28]?
The Activity was 64.77%.

And the Activity [29]?
Its Activity is 14%.

And the Activity [30]?
Its Activity is 10.9%.

And the Activity [31]?
The Activity was 90.23%.

And the Activity [32]?
Its Activity is 22.66%.

What about the Activity [33] of the same compound?
Its Activity is 15.04%.

What about the Activity [34] of the same compound?
Its Activity is 7.05%.

And the “fold change (FC)” value [35]?
The value was <4.

What about the CC50 at 24 h [36] of the same compound?
The CC50 at 24 h was 27.8 µg/mL (≈ 49.5 µM).

And the Activity [37]?
Its Activity is “Non-Toxic”.
